Literature values, collected in patent publication US7345028B1, “Energy-protective composition comprising adenosine phosphates” (priority 2002, dated 2008).

Test system: experimental animals
Settings: administered prior to and after gamma irradiation

Nc1ncnc2c1ncn2[C@@H]1O[C@H](COP(=O)(O)OP(=O)(O)O)[C@@H](O)[C@H]1O [adenosine diphosphate]
protective action against irradiation: protective action
